From paper PMC7179399, “Development and Characterization of the Shortest Anti-Adhesion Peptide Analogue of B49Mod1” (Molecules, 2020)
Ends that are not written are not given here.

Experiments:
Conditions in all cases: 24 h
[1] = tested on: human peripheral blood mononuclear cells (PBMCs); test: MTT viability assay, PBMCs; assay type: cell-based
Excerpt: Cell Lines: MDA-MB-468, MDA-MB-231, ZR-75-1, MCF7, and T47D were obtained from the Physical Sciences-Oncology Network (PS-ON) Bioresource Core Facility (PBCF) at American Type Culture Collection (ATCC, Manassas, VA, USA). SKBR3 cell line was a kind gift from Dr. Hyungjin Kim at Stony Brook University. ZR-75-1, MCF7, and T47D were maintained in complete RPMI 1640 media. MDA-MB-468, MDA-MB-231, and SKBR3 were maintained in complete DMEM media. Both complete RPMI and DMEM were supplemented with 10% FBS, 1% penicillin-streptomycin, 1 µg/mL Amphotericin B, 1% of l-glutamine, 2 mM sodium pyruvate, and 10 mM HEPES buffer at pH 8. Human Peripheral Blood Mononuclear Cells (PBMCs) were isolated from fresh human blood by Ficoll-Paque PLUS and cultured in complete RPMI 1640 media.
(§1) Viability Assay: Equivalent numbers of cells from each cell line was seeded in 96-well plate and incubated at 37 °C for 24 hours before treatment. The cells were treated with different concentration of peptides and incubated for 24 hours at 37 °C. 20 µl of 5mg/ml of MTT reagent was added to each well and incubated for 4 hours at 37 °C. The supernatant was then removed, followed by addition of 150 µl of MTT solvent, with shaking 15 min at room temperature. Absorbance at 590 nm was then measured through the BioTek Synergy H1 microplate reader.

SKBR3 = assay type: cell-based, human
Protocol: as §1

MCF7 = assay type: cell-based, human
Protocol: as §1

GFQDVEAQAATCNHTVMA [B18]
cytotoxic effect on quiescent PBMCs [1]: no cytotoxic effect was observed | IC50 (SKBR3): 11.2 ± 3.4 µM | IC50 (MCF7): 59.8 ± 5.3 µM
